Measurements as given in ChEMBL document CHEMBL1201862, “PubChem BioAssay data set” (2004).
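Exposure lasted 48 hours, with cells grown in 96-well plates and compounds tested at five concentrations. Here, GI50 denotes the concentration required for 50% inhibition of growth.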 The source made the active and inactive calls. Cut-off read from the data, not from the text of the source: active = GI50 up to about 1.1 µM and inactive = higher.

Assays:
Experiment in all cases: NCI tumour cell line growth inhibition, 48 h
UACC-257 = tested on: UACC-257
MCF7 = tested on: MCF7
RXF 393 = tested on: RXF 393
SK-OV-3 = tested on: SK-OV-3
TK-10 = tested on: TK-10
SF-539 = tested on: SF-539
RPMI-8226 = tested on: RPMI-8226
SNB-19 = tested on: SNB-19
HT-29 = tested on: HT-29
CCRF-CEM = tested on: CCRF-CEM
T47D = tested on: T47D
HOP-62 = tested on: HOP-62
MDA-MB-231 = tested on: MDA-MB-231
HL-60 = tested on: HL-60
HCC 2998 = tested on: HCC 2998
MOLT-4 = tested on: MOLT-4
Hs-578T = tested on: Hs-578T
NCI-H522 = tested on: NCI-H522
DU-145 = tested on: DU-145
OVCAR-4 = tested on: OVCAR-4
SF-295 = tested on: SF-295
NCI-H460 = tested on: NCI-H460
U-251 = tested on: U-251
UACC-62 = tested on: UACC-62
HOP-92 = tested on: HOP-92
BT-549 = tested on: BT-549
OVCAR-3 = tested on: OVCAR-3
HCT-116 = tested on: HCT-116
A498 = tested on: A498
M14 = tested on: M14
SR = tested on: SR
NCI-H23 = tested on: NCI-H23
SNB-75 = tested on: SNB-75
SK-MEL-2 = tested on: SK-MEL-2
SK-MEL-28 = tested on: SK-MEL-28
COLO 205 = tested on: COLO 205
UO-31 = tested on: UO-31
K562 = tested on: K562
LOX IMVI = tested on: LOX IMVI
Malme-3M = tested on: Malme-3M
MDA-MB-435 = tested on: MDA-MB-435
EKVX = tested on: EKVX
IGROV-1 = tested on: IGROV-1
OVCAR-5 = tested on: OVCAR-5
PC-3 = tested on: PC-3
MDA-N = tested on: MDA-N
786-0 = tested on: 786-0
CAKI-1 = tested on: CAKI-1
ACHN = tested on: ACHN
SF-268 = tested on: SF-268
NCI-H226 = tested on: NCI-H226
KM12 = tested on: KM12
SW-620 = tested on: SW-620
OVCAR-8 = tested on: OVCAR-8
HCT-15 = tested on: HCT-15
SN12C = tested on: SN12C
A549 = tested on: A549

## COC(=O)C1C(O)CCC2CN3CCc4c([nH]c5cccc(OC)c45)C3CC21 (configuration not stated)
UACC-257
  GI50: > 100 µM (inactive)
MCF7
  GI50: > 100 µM (inactive)
RXF 393
  GI50: 59.2 µM (inactive)
SK-OV-3
  GI50: > 100 µM (inactive)
TK-10
  GI50: > 100 µM (inactive)
SF-539
  GI50: > 100 µM (inactive)
RPMI-8226
  GI50: > 100 µM (inactive)
SNB-19
  GI50: > 100 µM (inactive)
HT-29
  GI50: > 100 µM (inactive)
CCRF-CEM
  GI50: > 100 µM (inactive)
T47D
  GI50: > 100 µM (inactive)
HOP-62
  GI50: > 100 µM (inactive)
MDA-MB-231
  GI50: > 100 µM (inactive)
HL-60
  GI50: > 100 µM (inactive)
HCC 2998
  GI50: > 100 µM (inactive)
MOLT-4
  GI50: > 100 µM (inactive)
Hs-578T
  GI50: > 100 µM (inactive)
NCI-H522
  GI50: > 100 µM (inactive)
DU-145
  GI50: > 100 µM (inactive)
OVCAR-4
  GI50: > 100 µM (inactive)
SF-295
  GI50: > 100 µM (inactive)
NCI-H460
  GI50: > 100 µM (inactive)
U-251
  GI50: > 100 µM (inactive)
UACC-62
  GI50: > 100 µM (inactive)
HOP-92
  GI50: > 100 µM (inactive)
BT-549
  GI50: > 100 µM (inactive)
OVCAR-3
  GI50: > 100 µM (inactive)
HCT-116
  GI50: > 100 µM (inactive)
A498
  GI50: > 100 µM (inactive)
M14
  GI50: > 100 µM (inactive)
SR
  GI50: > 100 µM (inactive)
NCI-H23
  GI50: > 100 µM (inactive)
SNB-75
  GI50: > 100 µM (inactive)
SK-MEL-2
  GI50: > 100 µM (inactive)
SK-MEL-28
  GI50: > 100 µM (inactive)
COLO 205
  GI50: > 100 µM (inactive)
UO-31
  GI50: 76 µM (inactive)
K562
  GI50: > 100 µM (inactive)
LOX IMVI
  GI50: > 100 µM (inactive)
Malme-3M
  GI50: > 100 µM (inactive)
MDA-MB-435
  GI50: > 100 µM (inactive)
EKVX
  GI50: > 100 µM (inactive)
IGROV-1
  GI50: > 100 µM (inactive)
OVCAR-5
  GI50: > 100 µM (inactive)
PC-3
  GI50: > 100 µM (inactive)
MDA-N
  GI50: > 100 µM (inactive)
786-0
  GI50: > 100 µM (inactive)
CAKI-1
  GI50: > 100 µM (inactive)
ACHN
  GI50: > 100 µM (inactive)
SF-268
  GI50: > 100 µM (inactive)
NCI-H226
  GI50: > 100 µM (inactive)
KM12
  GI50: > 100 µM (inactive)
SW-620
  GI50: > 100 µM (inactive)
OVCAR-8
  GI50: > 100 µM (inactive)
HCT-15
  GI50: > 100 µM
SN12C
  GI50: > 100 µM (inactive)
A549
  GI50: > 100 µM (inactive)
